Consider 95 compounds from the OPERA property sets (Mansouri et al. 2018).

Peptide text beside a SMILES is read from it.

On to `Clc1ccc(Cl)nc1`, for which the logP (commonly a log measure of how a compound divides between an organic and an aqueous phase) is 2.4.

`O=C1C=CC(=O)N1c1ccccc1` displayed a logP of 1.09.

The compound `NCCCCCc1cccnc1` returned a logP of 1.41.

In the case of `CC(=O)OCC1=C(C(=O)O)N2C(=O)C(NC(=O)COc3ccccc3)C2SC1` (stereo not given), the logP came out at 0.26.

Consider `Brc1ccc2cccnc2c1`, for which the logP is 2.92.

In turn, `CN(C)C(=O)c1ccccc1O` yielded a log partition coefficient (logP) of 0.44.

`COCCOC(=O)c1ccccc1` came in with a logP of 1.78.

`CCCCCCCCCCCCOS(=O)(=O)[O-].[Na+]`: the logP is 1.6.

Compound `Cc1ccc(S(N)(=O)=O)cc1` displayed a logP of 0.82.

`CN(C)C(=O)OCc1ccc([N+](=O)[O-])cc1` had a logP of 1.95.

In the case of `Cn1cccc1C=NNC(=O)Nc1ccccc1`, the logP was 2.71.

Consider `c1ccc(C23CC4CC(CC(C4)C2)C3)cc1`, for which the logP was 5.55.

`S=C=Nc1ccc2ccccc2c1` returned a logP of 4.34.

For the compound `CCCCOC(=O)Oc1cccc(C2(C(=O)CC)CCN(C)CC2)c1`, the logP was determined as 2.42.

As for `Cc1nnc(SCC2=C(C(=O)O)N3C(=O)[C@@H](NC(=O)Cn4cnnn4)[C@H]3SC2)s1`, the logP was -0.58.

In the case of `Cc1ccc(C)n1N(C)c1ccc(N2CCOCC2)nn1`, the logP stood at 2.21.

`CC(C)[C@@H](N)Cc1ccccc1`: the logP was 2.59.

`c1ccc2c(c1)CCc1ccccc1-2` came in with a logP of 4.52.

In turn, `CC(C)NNC(=O)COc1ccccc1Cl` gave a logP of 1.82.

`O=C(O)c1ccccc1Cl`: the logP stood at 2.05.

Turning to `COc1ccc(CCNCC(O)COc2cccc(C)c2)cc1OC` (stereo not given), the logP was 3.

On to `CCOP(=S)(OCC)Oc1cc(C)nc(N(CC)CC)n1`, for which the logP worked out at 4.85.

In the case of `CCCOC(=O)c1cc(O)c(O)c(O)c1`, the logP turned out to be 1.8.

`O=C(CF)NC(CO)C(O)c1ccc([N+](=O)[O-])cc1` (stereo not given): the lipophilicity (logP) was 0.15.

`CCCCOc1ccc(C(=O)OCCN(C)C)cc1` came in with a log partition coefficient (logP) of 3.91.

`CCCS(=O)(=O)CCC`: the logP amounted to 0.39.

For the compound `O=[N+]([O-])C=Cc1cccc([N+](=O)[O-])c1`, the logP came to 1.82.

With `CF`, the logP amounted to 0.51.

In the case of `O=C(CN1CCCCC1)Nc1cccc(F)c1`, the logP was determined as 2.85.

Consider `CCNc1nc(NC(C)(C)C)nc(SC)n1`, for which the lipophilicity (logP) was found to be 3.74.

In turn, `CCn1c(=O)c2nc(-c3ccc(S(=O)(=O)NCCN(C)C)cc3)[nH]c2n(CC)c1=O` showed a lipophilicity (logP) of 2.57.

The compound `CN1C(=O)C(=O)c2ccccc21` came in with a logP of 0.58.

`COc1cc(NC(=O)NC(=N)N)ccc1C#N` gave a logP of 1.28.

On to `C=CC(N)=O`, for which the logP is -0.67.

Compound `Clc1ccc(Cl)c(Cl)n1` displayed a logP of 2.77.

In turn, `OCC(Cl)Cl` displayed a logP of 0.37.

For `COc1ccc(-c2nc3ccncc3n2C)c(OC)c1`, the logP turned out to be 2.68.

For the compound `Nc1ccc(S(=O)(=O)Nc2nccs2)cc1`, the logP worked out at 0.05.

For the compound `CC(C)COC(=O)c1ccccc1C(=O)OCC(C)C`, the logP came to 4.11.

`Oc1ccc(-c2ccccc2)cc1` registered a logP of 3.2.

`Cc1ccc(C(O)c2ccccc2)cc1` (stereo not given) returned a logP of 3.13.

Compound `Nc1nc(N)nc(-c2ccccc2)n1` came in with a logP of 1.36.

For `COC`, the logP came out at 0.1.

`O=[N+]([O-])c1nccn1CC(O)CF` (stereo not given) showed a logP of -0.52.

`COc1ccc(OC(=O)N(C)C)cc1` came in with a log partition coefficient (logP) of 1.53.

Take `CC(C)c1ccccc1OC(=O)N(C)C`: the logP is 2.65.

Consider `COc1ccc(C(C)=O)cc1`, for which the logP worked out at 1.74.

Compound `CC(=O)Nc1cc(C(=O)NN)ccn1` returned a logP of -1.25.

In the case of `CC=CC=CC` (mixture of isomers), the logP was found to be 2.8.

Consider `CCOC(=O)c1ccco1`, for which the logP worked out at 1.52.

On to `O=Cc1ccsc1`, for which the log partition coefficient (logP) came out at 1.01.

`O=Cc1ccncc1` registered a logP of 0.43.

Regarding `COc1ccccc1C=C(C(C)=O)C(C)=O`, the logP came to 1.73.

With `OCCCCc1ccccc1`, the logP amounted to 2.35.

Turning to `O=Cc1cccnc1`, the logP was determined as 0.29.

In turn, `O=c1[nH]ncc2ccccc12` came in with a logP of 0.75.

Compound `O=C(O)c1c(O)cccc1O` returned a logP of 2.2.

`N#CC1CC1`: the logP was found to be 0.68.

Take `CC1Nc2cc(Cl)c(S(N)(=O)=O)cc2S(=O)(=O)N1` (stereo not given): the logP amounted to 0.08.

Turning to `Cc1ccc(OC(=O)N(C)C)cc1`, the logP came out at 2.03.

With `COc1noc2c1CNCC2`, the logP is -0.04.

Take `CCCCCCCOc1cccc(NC(=O)OCCN2CCCCC2)c1`: the logP is 5.53.

`O=c1c2ccccc2sc2ccccc12` displayed a logP of 3.99.

For `NC(Cc1ccccc1)Cc1ccccc1`, the logP came to 3.35.

`CC(=O)N(C)Nc1ccccc1`: the logP was found to be 1.31.

With `CC(C)c1cccc(OCC(=O)O)c1`, the logP was found to be 2.59.

In turn, `COc1cc(Cl)cc(Cl)c1` gave a logP of 3.8.

With `N#CNC(=N)N`, the logP was -1.15.

In the case of `c1nnn[nH]1`, the logP is -0.6.

`Cc1cccc(OC(=O)N(C)C)c1` had a logP of 2.05.

`Cc1ccc(OCC(=O)NNC(C)C)cc1` displayed a logP of 1.81.

On to `CC1(C)Oc2c(O)cccc2C1=O`, for which the logP was 1.87.

For `CNC(=O)Oc1cccc(C#N)c1`, the logP was found to be 0.97.

For `Cc1cc(C)c(C)c(C)c1C`, the lipophilicity (logP) amounted to 4.56.

Take `O=S1OCC2C(CO1)C1(Cl)C(Cl)=C(Cl)C2(Cl)C1(Cl)Cl` (stereo not given): the logP was determined as 3.83.

Regarding `CC[C@H](C)[C@H](NC(=O)[C@@H](NC(C)=O)[C@@H](C)O)C(N)=O` (Ac-Thr-Ile-NH2), the logP was -0.86.

Take `CNn1cc(C(=O)O)c(=O)c2cc(F)c(N3CCN(C)CC3)cc21`: the lipophilicity (logP) was 0.23.

For `CC(=O)Oc1ccc(C(C)=O)cc1`, the logP stood at 1.29.

`NNP(=O)(Oc1ccccc1)Oc1ccccc1` yielded a log partition coefficient (logP) of 1.51.

Take `COCCOC`: the logP was -0.21.

With `Cc1ccc(Cc2c[nH]c(NCCSCc3ccc(CN(C)C)o3)nc2=O)cn1`, the logP amounted to 2.06.

`CNC(=O)Oc1ccc(C(C)(C)C)cc1` returned a logP of 3.06.

On to `COC1C(O)C(C)OC(OC2CCC3(C=O)C(CCC4C3CCC3(C)C(C5=CC(=O)OC5)CCC43O)C2)C1O` (stereo not given), for which the logP was 1.05.

As to `FC(F)(F)Br`, the logP was determined as 1.86.

The compound `O=[N+]([O-])c1ccccn1` returned a logP of 0.48.

In turn, `CCC(C)CC(=O)OCC1CCC(n2cnc3c(=O)[nH]cnc32)O1` (stereo not given) had a logP of 1.

`Nc1ccc(S)cc1`: the logP came out at 1.31.

Take `COc1cccc([N+](=O)[O-])c1`: the lipophilicity (logP) came out at 2.16.

As to `O=Cc1ccccc1Cl`, the logP was 2.33.

Take `CC1(C)O[C@@H]2C[C@H]3[C@@H]4CCC5=CC(=O)C=C[C@]5(C)[C@@]4(F)[C@@H](O)C[C@]3(C)[C@]2(C(=O)CO)O1`: the logP worked out at 2.53.

Regarding `Cc1cc(C)nc(C)c1`, the log partition coefficient (logP) amounted to 1.88.

Compound `COc1ccc(C=CC(=O)O)cc1OC` had a logP of 2.34.

`CC(=O)OC1C(=O)C2(C)C(O)CC3OCC3(OC(C)=O)C2C(OC(=O)c2ccccc2)C(C)(O)C2(C)CC(OC(=O)C(C)O)C(C)=C12` (stereo not given): the logP is 1.52.

For `COc1ccc([N+](=O)[O-])cc1N`, the logP was determined as 1.47.

Compound `CS(=O)(=O)c1ccc(C(O)C(CO)NC(=O)C(Cl)Cl)cc1` (stereo not given) registered a logP of -0.27.
